Experimental data as given in patent US20110054039A1, “USE OF ALKYL SULFATES OR SULFONATES AGAINST PROPIONIBACTERIUM ACNES” (priority 2008, published 2011).
Values after ≈ are worked out from the molar mass of the structure shown. Where a name gives a salt, the structure may show the parent alone. Read-outs that look alike come from different tables or passages of the source.

Key:
Format in all cases: cell-based
[1] = system: Propionibacterium acnes NCTC 737; test: Disc Diffusion Assay (DDA); conditions: P. acnes NCTC 737, 200 μg of test compound per disc; for zone of inhibition at 200 µg/disc: Cutibacterium acnes, NCTC737, read-out: DDA (diameter of zone of inhibition)
Method: (§1) The test micro-organism represented the cutaneous propionibacteria. […] The propionibacteria are clinically significant due to their involvement in acne. This is a very common, complex and multi-factorial skin disease in which P. acnes and other Propionibacterium spp. […] They are also opportunistic pathogens in compromised hosts.
(§2) The propionibacteria were cultured and maintained on Wilkins-Chalgren Anaerobe Medium (agar and broth) at pH 6.0; all cultures were incubated anaerobically at 37° C. for 72 hours.
This is an internationally recognised standard method for qualitatively assessing the antimicrobial activity of a compound.
(§3) A sterile paper disc was impregnated with a sample of the test compound in a suitable solvent and 30 minutes allowed for the solvents to evaporate (where possible). The disc was then placed on an agar plate onto which the test micro-organism had been inoculated. The plate was then incubated under the conditions described above, following which it was examined visually for signs of microbial growth. […] The diameter of this zone of ‘inhibition’ was measured using a ProtoCOL™ automated zone sizer (Synbiosis, Cambridge, UK).
(§4) MIC, MBC and DDA assays, as described above, were carried out using as the test compound sodium n-tetradecyl sulphate (STS, ex Sigma Aldrich, UK), dissolved in distilled water. All the experiments were conducted in triplicate. For the DDA experiments, 200 μg of the test compound was loaded onto each disc.
(§5) The MIC/MBC experiments were conducted in triplicate, with the exception of those for SDS and ADS which were conducted in duplicate. The DDAs were performed either in triplicate, in which case standard deviations are quoted in parentheses, or as a single replicate. For the DDA experiments, 200 μg of the test compound was loaded onto each disc.

[2] = system: Propionibacterium acnes NCTC 737; test: Minimum Inhibitory Concentration (MIC) assay, broth microdilution; conditions: P. acnes NCTC 737, Wilkins-Chalgren broth pH 6.0, anaerobic, 37° C., 72 hours
Method: as §1, §2
This is a standard international method for quantitatively assessing the antimicrobial activity of a compound in a liquid medium. […] The culture media were as described above.
The wells were inoculated with a liquid suspension of freshly grown micro-organism and incubated under the conditions described above. After incubation, the microtitre plate was examined visually (with the aid of a light box) for cloudiness in each well, which would indicate microbial growth. The MIC value was recorded as the lowest concentration of test compound required to inhibit microbial growth, ie the lowest concentration for which the liquid in the well remained clear.
The assays included both negative (culture medium with no micro-organisms) and positive (culture medium plus diluting solvent plus micro-organism) controls.
as §4, §5

[3] = system: Propionibacterium acnes NCTC 737; test: Supplemented Disc Diffusion Assay (agar with salt or lipid); conditions: P. acnes NCTC 737, 200 μg per disc; for zone of inhibition at 200 µg/disc: Cutibacterium acnes, NCTC737, 72 h
Method: as §1, §2, §3
Performance under these conditions can provide a more reliable indication of activity on topical application.
as §4, §5

[4] = system: Propionibacterium acnes NCTC 737; test: Minimum Biocidal (Bactericidal) Concentration (MBC) assay; conditions: P. acnes NCTC 737; for MBC: sub-culture on antibiotic-free agar after MIC assay
Method: as §1, §2
This assay, normally carried out after an MIC assay, determines the minimum concentration of a compound that is lethal to the micro-organism being tested.
These samples were then individually sub-cultured on antibiotic-free agar medium, under the incubation conditions described above. Following incubation they were examined visually for microbial growth.
as §4, §5

[5] = Cutibacterium acnes, NCTC737, read-out: MIC
[6] = agar supplemented with sodium chloride (100 mM), read-out: DDA + salt
[7] = agar supplemented with triolein at 1% v/v, read-out: DDA + lipid
[8] = Cutibacterium acnes, NCTC737, read-out: MBC

SMILES	MIC [2, 5]	MIC [2]	zone of inhibition at 200 µg/disc [1]	zone of inhibition at 200 µg/disc [3, 6]	zone of inhibition at 200 µg/disc [3, 7]	MBC [4, 8]	MIC/MBC ratio [4]	MBC [4]	DDA (diameter of zone of inhibition) [1]	DDA + salt ([3]; agar supplemented with sodium chloride (100 mM))	DDA + lipid ([3]; agar supplemented with triolein at 1% v/v)
CCCCCCCCCCCCOS(=O)(=O)O.N [Ammonium dodecyl sulphate (ADS), ammonium dodecyl sulphate]	31.2 µg/mL		22.2 mm	24.1 mm	20.3 mm	125 µg/mL	0.25				
CCCCCCCCCCCC(=O)O [Laurie acid, reference compound]		15.6 µg/mL (≈ 0.0779 mM)						31.25 µg/mL (≈ 0.156 mM)			
CCCCCCCCCCCCOS(=O)(=O)[O-].[Li+] [Lithium dodecyl sulphate, lithium dodecyl sulphate]	15.6 µg/mL		30 mm	30.5 mm	30.2 mm	15.6 µg/mL	1				
CCCCCCCCCCS(=O)(=O)[O-].[Na+] [Sodium 1-decane sulphonate, sodium 1-decane sulphonate]	> 250 µg/mL		0 mm	0 mm	0 mm	> 250 µg/mL					
CCCCCCCS(=O)(=O)[O-].[Na+] [Sodium 1-heptane sulphonate, sodium 1-heptane sulphonate]	> 250 µg/mL		0 mm	0 mm	10.6 mm	> 250 µg/mL					
CCCCCCCCCS(=O)(=O)[O-].[Na+] [Sodium 1-nonanesulphonate, sodium 1-nonanesulphonate]	> 250 µg/mL		0 mm	0 mm	0 mm	> 250 µg/mL					
CCCCCCCCS(=O)(=O)O.[Na] [Sodium 1-octane sulphonic acid, sodium 1-octane sulphonic acid]	> 250 µg/mL		0 mm	0 mm	0 mm	> 250 µg/mL					
CCCS(=O)(=O)[O-].O.[Na+] [Sodium 1-propanesulphate monohydrate, sodium 1-propanesulphate monohydrate]		>250 µg/mL						>250 µg/mL	0.00 mm	0.00 mm	0.00 mm
CCCCCCCCCCCCOS(=O)(=O)[O-].[Na+] [Sodium dodecyl sulphate (SDS), sodium dodecyl sulphate]	31.2 µg/mL		30.7 mm	28.2 mm	28.2 mm	62.5 µg/mL	0.5				
CCCCCCOS(=O)(=O)[O-].[Na+] [Sodium n-hexyl sulphate, sodium n-hexyl sulphate]	> 250 µg/mL		0 mm	0 mm	0 mm	> 250 µg/mL					
CCCCCOS(=O)(=O)[O-].[Na+] [Sodium n-pentyl sulphate, sodium n-pentyl sulphate]	> 250 µg/mL		0 mm	0 mm	0 mm	> 250 µg/mL					
CCCCCCCCCCCCCC(=O)O [myristic acid, reference compound]	> 1000 µg/mL					> 1000 µg/mL					
CCCCCCCCCCCCCCCC(=O)O [palmitic acid, reference compound]	> 1000 µg/mL					> 1000 µg/mL					

Continued, in another order:

MIC [2, 5]	MIC [2]	SMILES	zone of inhibition at 200 µg/disc [1]	zone of inhibition at 200 µg/disc [3, 6]	zone of inhibition at 200 µg/disc [3, 7]	MBC [4, 8]	MIC/MBC ratio [4]	MBC [4]	DDA (diameter of zone of inhibition) [1]	DDA + salt ([3]; agar supplemented with sodium chloride (100 mM))	DDA + lipid ([3]; agar supplemented with triolein at 1% v/v)
31.2 µg/mL		CCCCC(CC)CCC(CC(C)C)OS(=O)(=O)O (stereo not shown) [7-ethyl-2-methyl-4-hendecanol sulphate sodium salt]	28.5 mm	30.8 mm	28.6 mm	62.5 µg/mL	0.5				
> 250 µg/mL		CCCCS(=O)(=O)[O-].[Na+] [Sodium 1-butane sulphonate, sodium 1-butane sulphonate]	0 mm	0 mm	0 mm	> 250 µg/mL					
125 µg/mL		CCCCCCCCCCCCS(=O)(=O)[O-].[Na+] [Sodium 1-dodecanesulphonate, sodium 1-dodecanesulphonate]	18.1 mm	23 mm	18.4 mm	250 µg/mL	0.5				
1.95 µg/mL		CCCCCCCCCCCCCCCCS(=O)(=O)[O-].[Na+] [Sodium 1-hexadecane sulphonate, sodium 1-hexadecane sulphonate]	0 mm	0 mm	0 mm	3.9 µg/mL	0.5				
125 µg/mL		CCCCCCCCCCCCCCCCCCS(=O)(=O)O.[Na] [Sodium 1-octadecane sulphonic acid, sodium 1-octadecane sulphonic acid]	0 mm	0 mm	0 mm	> 250 µg/mL	<0.5				
0.98 µg/mL		CCCCCCCCCCCCCCCS(=O)(=O)O.[Na] [Sodium 1-pentadecane sulphonic acid, sodium 1-pentadecane sulphonic acid]	11.8 mm	12.1 mm	0 mm	3.9 µg/mL	0.25				
3.9 µg/mL		CCCCCCCCCCCCCCS(=O)(=O)O.[Na] [Sodium 1-tetradecane sulphonic acid, sodium 1-tetradecane sulphonic acid]	11.2 mm	12.4 mm	9.61 mm	15.6 µg/mL	0.25				
15.6 µg/mL		CCCCCCCCCCCCCS(=O)(=O)O.[Na] [Sodium 1-tridecane sulphonic acid, sodium 1-tridecane sulphonic acid]	28.6 mm	29.3 mm	27.4 mm	31.2 µg/mL	0.5				
250 µg/mL		CCCCCCCCCCOS(=O)(=O)[O-].[Na+] [Sodium decyl sulphate, sodium decyl sulphate]	0 mm	0 mm	0 mm	> 250 µg/mL	<1				
0.98 µg/mL		CCCCCCCCCCCCCCCCOS(=O)(=O)[O-].[Na+] [Sodium hexadecyl sulphate, sodium hexadecyl sulphate]	36.3 mm	32.4 mm	39.8 mm	1.95 µg/mL	0.5				
250 µg/mL		CCCCCCCCCOS(=O)(=O)[O-].[Na+] [Sodium n-nonyl sulphate, sodium n-nonyl sulphate]	0 mm	0 mm	0 mm	250 µg/mL	1				
